Test results taken from patent publication US20190002399A1 (Nektar Therapeutics, priority 2007, published 2019).
Like-named read-outs stand apart in the source and are kept apart here. Marks after values point to notes of the source that are not given here.

What was measured:
[1] = target: T1, human Na channels expressed in native cells (human atrial myocytes) (Homo sapiens, UniProt Q14524); test: Potency at sodium channels: whole-cell patch clamp of sodium current (INa) in isolated human atrial myocytes; assay type: cell-based
T1 construct: from tissue; host or cells: cardiomyocytes isolated from human atrial appendages
T1 sequence (Q14524 whole entry): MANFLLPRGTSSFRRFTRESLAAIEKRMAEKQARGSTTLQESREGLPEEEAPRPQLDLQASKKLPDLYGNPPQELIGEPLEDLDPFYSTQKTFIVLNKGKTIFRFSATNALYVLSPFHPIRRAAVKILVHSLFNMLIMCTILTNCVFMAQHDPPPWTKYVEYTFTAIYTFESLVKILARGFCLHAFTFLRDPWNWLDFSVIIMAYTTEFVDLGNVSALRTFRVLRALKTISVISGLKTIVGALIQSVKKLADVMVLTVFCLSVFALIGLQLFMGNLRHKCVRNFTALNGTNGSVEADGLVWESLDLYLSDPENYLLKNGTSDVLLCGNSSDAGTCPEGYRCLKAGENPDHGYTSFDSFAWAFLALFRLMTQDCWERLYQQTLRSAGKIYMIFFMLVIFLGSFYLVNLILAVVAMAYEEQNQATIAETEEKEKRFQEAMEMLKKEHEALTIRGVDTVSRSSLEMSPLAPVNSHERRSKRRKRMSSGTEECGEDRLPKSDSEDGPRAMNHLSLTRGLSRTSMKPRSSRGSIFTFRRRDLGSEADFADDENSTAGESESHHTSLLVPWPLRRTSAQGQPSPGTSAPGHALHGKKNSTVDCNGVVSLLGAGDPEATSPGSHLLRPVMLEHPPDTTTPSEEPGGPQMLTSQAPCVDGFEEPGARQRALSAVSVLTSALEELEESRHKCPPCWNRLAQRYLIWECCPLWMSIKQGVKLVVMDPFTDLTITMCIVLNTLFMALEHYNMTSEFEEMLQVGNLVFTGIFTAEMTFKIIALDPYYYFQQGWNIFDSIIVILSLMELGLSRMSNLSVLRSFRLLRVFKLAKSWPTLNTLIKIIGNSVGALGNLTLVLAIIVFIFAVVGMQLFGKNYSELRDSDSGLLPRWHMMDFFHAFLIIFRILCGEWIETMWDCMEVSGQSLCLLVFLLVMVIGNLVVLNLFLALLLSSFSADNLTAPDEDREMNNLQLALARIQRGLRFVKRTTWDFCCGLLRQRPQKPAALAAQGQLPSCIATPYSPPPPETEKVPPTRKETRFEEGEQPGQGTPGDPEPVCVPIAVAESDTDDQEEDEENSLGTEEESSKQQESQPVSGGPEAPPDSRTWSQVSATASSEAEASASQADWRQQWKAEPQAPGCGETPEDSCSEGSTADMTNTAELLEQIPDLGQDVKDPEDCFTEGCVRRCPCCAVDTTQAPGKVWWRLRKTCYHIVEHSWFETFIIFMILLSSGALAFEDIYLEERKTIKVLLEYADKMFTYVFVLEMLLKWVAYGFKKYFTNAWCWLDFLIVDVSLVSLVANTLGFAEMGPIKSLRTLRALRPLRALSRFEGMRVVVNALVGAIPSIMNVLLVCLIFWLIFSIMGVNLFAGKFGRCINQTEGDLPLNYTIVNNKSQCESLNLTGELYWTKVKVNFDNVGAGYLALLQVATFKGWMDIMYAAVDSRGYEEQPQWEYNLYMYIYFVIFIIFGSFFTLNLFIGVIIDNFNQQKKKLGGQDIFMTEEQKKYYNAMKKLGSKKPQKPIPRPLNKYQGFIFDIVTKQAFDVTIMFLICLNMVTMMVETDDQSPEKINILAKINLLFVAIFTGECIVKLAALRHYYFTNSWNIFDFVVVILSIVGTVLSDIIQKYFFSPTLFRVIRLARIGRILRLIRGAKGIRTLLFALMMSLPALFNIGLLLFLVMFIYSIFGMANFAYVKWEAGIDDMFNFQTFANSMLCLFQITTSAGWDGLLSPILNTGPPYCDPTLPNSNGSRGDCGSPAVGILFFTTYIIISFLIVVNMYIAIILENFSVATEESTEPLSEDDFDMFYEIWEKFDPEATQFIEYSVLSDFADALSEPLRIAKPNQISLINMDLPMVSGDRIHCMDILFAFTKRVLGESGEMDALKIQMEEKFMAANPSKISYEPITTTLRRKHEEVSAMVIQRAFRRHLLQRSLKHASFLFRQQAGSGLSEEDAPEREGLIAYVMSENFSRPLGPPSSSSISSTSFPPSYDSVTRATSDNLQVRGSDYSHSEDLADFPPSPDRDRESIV
Procedure: Experiments were performed at 23±1° C. Currents were measured using the whole-cell variant of the patch clamp method. An Axopatch 1-B amplifier (Axon Instruments, Foster City, Calif.) was used for whole-cell voltage clamping. […] Peak inward current was measured for INa. […] Creation of voltage clamp pulses and data acquisition were controlled by a PC running pClamp software (version 9.2, Axon Instruments). Test compounds were added in a cumulative manner. Data are presented as % reduction of current amplitude. […] Each cell served as its own control. Log-linear plots were created of the mean percent blockade ±SEM at the concentrations tested. Nonlinear curve fitting routine was utilized to fit a three-parameter Hill equation to the results using MicroCal Origin, version 6.0 software.

CB-1 male mice = test: Analgesic assay: acetic acid writhing test; assay type: in vivo
Procedure: An analgesic assay was used to determine whether a given compound can reduce and/or prevent visceral pain in mice.
The assay utilized CB-1 male mice (5-8 mice per group), each mouse being approximately 0.015-0.030 kg on the study day. Mice were treated according to standard protocols.
Mice were given a single “pretreatment” dose of a compound lacking covalent attachment of a water-soluble, non-peptidic oligomer, a corresponding conjugate comprising the compound covalently attached to a water-soluble, non-peptidic oligomer, or control solution (IV, SC, IP or orally) thirty minutes prior to the administration of the acetic acid solution. The animal was given an IP injection of an irritant (acetic acid) that induces “writhing” which may include: contractions of the abdomen, twisting and turning of the trunk, arching of the back and the extension of the hind limbs. […] After the injection the animals were returned to their cages and their behavior was observed. Contractions were counted between 0 and 20 minutes after the injection. The animals were used once. […]

[2] = pKa determination of conjugates; assay type: physicochemical
[3] = Log P determination of conjugates; assay type: physicochemical
[4] = lidocaine series, IC50 at 0.1 Hz relative to lidocaine
[5] = lidocaine series, peak INa, human atrial myocytes, pacing 0.1 Hz, 23±1° C
[6] = 10 mg/kg, SC, 30 min before IP 0.5% acetic acid, counted 0-20 min
[7] = 10 mg/kg, SC, animals with writhes ≤ upper 95% confidence limit for morphine
[8] = 10 mg/kg, SC, responding animals/N
[9] = mexiletine series, IC50 at 0.1 Hz relative to mexiletine

Molecule | Fold Change vs. Parent [1, 4] | % Reduction in Writhing (CB-1 male mice; 10 mg/kg, SC) | Mean (writhes) (CB-1 male mice; [6]) | # of Responders (CB-1 male mice; [7]) | Responding Fraction (CB-1 male mice; [8]) | pKa1 ([2]; Table 2, mexiletine conjugates) | logP ([3]; read-out: LogP) | Fold Change vs. Parent [1, 9] | IC50 ([1]; read-out: IC50 at 0.1 Hz) | also measured
PEG6-di-lidocaine [mPEG6-Di-Lidocaine] | 2 | 37.9% | 27.0 | 3 | 0.60 | – | – | – | – | IC50 [1, 5]: 236 µM
COCCOCCOCCOCCOCCOCCOCCN(CCOCCOCCOCCOCCOCCOCCOC)C(C)COc1c(C)cccc1C (stereo not drawn) [N,N-Di-mPEG7-Mexiletine, N,N-di-mPEG7-mexiletine] | – | – | – | – | – | 7.75 | 0.83 | 2 | 130 µM | –
CN1CC[C@]23c4c5ccc(O)c4O[C@H]2[C@@H](O)C=C[C@H]3[C@H]1C5 [Morphine, morphine, reference compound] | – | – | – | – | – | – | – | – | – | # of Responders (CB-1 male mice; historical morphine data, N 27, animals with writhes ≤ upper 95% confidence limit for morphine): 15; Mean (writhes) (CB-1 male mice; historical morphine data, contractions counted 0-20 min after IP 0.5% acetic acid, group table: SC 0.5 mg/kg): 21.33; % Reduction in Writhing (CB-1 male mice; historical morphine data, group table: SC 0.5 mg/kg): 57%; Responding Fraction (CB-1 male mice; historical morphine data, responding animals/N): 0.56
CCNCCOCCOCCOCCOCCN(CC)CC(=O)Nc1c(C)cccc1C [EtNH-PEG5-Lidocaine, EtNH-PEG5-lidocaine] | 1 | – | – | – | – | – | – | – | 99.3 µM | –
COCCOCCOCCOCCCNC(C)COc1c(C)cccc1C (stereo not drawn) [N-mPEG3-C3-Mexiletine, N-mPEG3-C3-mexiletine] | – | 46.3% | 29.8 | 2 | 0.40 | 8.98 | 2.05 | 4 | 188 µM | –
COCCOCCOCCOCCOCCN(CCOCCOCCOCCOCCOC)C(C)COc1c(C)cccc1C (stereo not drawn) [N,N-Di-mPEG5-Mexiletine, N,N-di-mPEG5-mexiletine] | – | – | – | – | – | 8.26 | 1.61 | 2 | 95.9 µM | –
COCCOCCOCCOCCOCCNC(C)COc1c(C)cccc1C (stereo not drawn) [N-mPEG5-Mexiletine, N-mPEG5-mexiletine] | – | 42.4% | 29.0 | 2 | 0.40 | 8.27 | 4.51 | – | – | pKa2 ([2]; Table 2, mexiletine conjugates): 7.86
CCN(CCOCCOCCOCCOCCOCCOCCOCCOC)CC(=O)Nc1c(C)cccc1C [mPEG8-Lidocaine, mPEG8-lidocaine] | 1 | 37.2% | 38.0 | 2 | 0.40 | – | 0.63 | – | 57.5 µM | pKa ([2]; read-out: pKa): 6.43
CCN(CCOCCOCCOCCOCCOCCO)CC(=O)Nc1c(C)cccc1C [PEG6-Lidocaine, HO-PEG6-Lidocaine] | 1 | – | – | – | – | – | – | – | 104 µM | –
CCN(CCOCCOCCOC)CC(=O)Nc1c(C)cccc1C [mPEG3-Lidocaine, mPEG3-lidocaine] | 7 | – | – | – | – | – | 1.55 | – | 706 µM | pKa ([2]; read-out: pKa): 6.46
Cc1cccc(C)c1OCC(C)NCCOCCOCCOCCNC(C)COc1c(C)cccc1C (stereo not drawn) [PEG4-Di-Mexiletine, PEG4-di-Mexiletine] | – | – | – | – | – | 7.73 | 2.36 | 0.14 | 7.32 µM | –
PEG5-di-lidocaine [mPEG5-Di-Lidocaine] | 1 | 60.3* % | 17.3 | 2 | 0.50* | – | – | – | – | IC50 [1, 5]: 83.3 µM; # of Responders (CB-1 male mice; 3 mg/kg, SC): 2; % Reduction in Writhing (CB-1 male mice; 3 mg/kg, SC): 46.0%; Responding Fraction (CB-1 male mice; 3 mg/kg, SC): 0.50; Mean (writhes) (CB-1 male mice; 3 mg/kg, SC, 30 min before IP 0.5% acetic acid, counted 0-20 min): 23.5
CCN(CCOCCOCCOCCOCCOCCOC)CC(=O)Nc1c(C)cccc1C [mPEG6-Lidocaine, mPEG6-lidocaine] | 5 | – | – | – | – | – | 1.23 | – | 473 µM | pKa ([2]; read-out: pKa): 6.46
CCN(CCOCCOCCOCCOCCO)CC(=O)Nc1c(C)cccc1C [PEG5-Lidocaine, HO-PEG5-Lidocaine] | 3 | – | – | – | – | – | – | – | 330 µM | –
CCN(CC)CC(=O)Nc1c(C)cccc1C [Lidocaine, lidocaine, reference compound] | – | 37.5% | 36.3 | 2 | 0.50 | – | – | – | – | –
CCN(CCOCCOCCOCCOCCOCCOCCOC)CC(=O)Nc1c(C)cccc1C [mPEG7-Lidocaine, mPEG7-lidocaine] | 2 | 40.5% | 36.0 | 2 | 0.40 | – | – | – | – | pKa ([2]; Table 1, lidocaine conjugates): 6.81; logP ([3]; Table 1, lidocaine conjugates): 1.37; IC50 [1, 5]: 236 µM
COCCOCCOCCN(CCOCCOCCOC)C(C)COc1c(C)cccc1C (stereo not drawn) [N,N-Di-mPEG3-Mexiletine, N,N-di-mPEG3-mexiletine] | – | – | – | – | – | 7.76 | 1.96 | 1 | 66.2 µM | –
COCCOCCOCCNC(C)COc1c(C)cccc1C (stereo not drawn) [N-mPEG3-Mexiletine, N-mPEG3-mexiletine] | – | – | – | – | – | 8.27 | 2.26 | 5 | 284 µM | –
CN(C)C(=O)C(CCN1CCC(O)(c2ccc(Cl)cc2)CC1)(c1ccccc1)c1ccccc1 [Loperamide, reference compound] | – | – | – | – | – | – | – | – | – | # of Responders (CB-1 male mice; 0.75 mg/kg, SC): 4; % Reduction in Writhing (CB-1 male mice; 0.75 mg/kg, SC): 78.6%; Responding Fraction (CB-1 male mice; 0.75 mg/kg, SC): 1.00; Mean (writhes) (CB-1 male mice; 0.75 mg/kg, SC, 30 min before IP 0.5% acetic acid, counted 0-20 min): 9.0
COCCOCCOCCOCCOCCOCCOCCOCCNC(C)COc1c(C)cccc1C (stereo not drawn) [N-mPEG8-Mexiletine, N-mPEG8-mexiletine] | – | 65.8% | 17.2 | 3 | 0.60 | 8.79 | 1.79 | 2 | 90.5 µM | –
CCN(CCOCCOCCOCCOC)CC(=O)Nc1c(C)cccc1C [mPEG4-Lidocaine, mPEG4-lidocaine] | 2 | – | – | – | – | – | 1.42 | – | 178 µM | pKa ([2]; read-out: pKa): 6.46
CCN(CCOCCOCCOCCOCCOCCOCCOCCOCCOC)CC(=O)Nc1c(C)cccc1C [mPEG9-Lidocaine, mPEG9-lidocaine] | 2 | – | – | – | – | – | 0.82 | – | 173 µM | pKa ([2]; read-out: pKa): 6.57
CCN(CCOCCOCCOCCOCCOC)CC(=O)Nc1c(C)cccc1C [mPEG5-Lidocaine, mPEG5-lidocaine] | 1 | – | – | – | – | – | – | – | – | pKa ([2]; Table 1, lidocaine conjugates): 6.46; logP ([3]; Table 1, lidocaine conjugates): 1.01; IC50 [1, 5]: 53.5 µM
COCCOCCOCCOCCOCCOCCOCCNC(C)COc1c(C)cccc1C (stereo not drawn) [N-mPEG7-Mexiletine, N-mPEG7-mexiletine] | – | – | – | – | – | 8.26 | 1.23 | 4 | 206 µM | –
